The structures appear in SMILES notation. Values joined by “and” are separate entries in the source; they are usually repeats but may differ in a detail not shown here. Equal entries are not always repeated.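 Where inhibition never reached the appropriate level, the endpoint shown equals the highest concentration tested. Otherwise, values were interpolated linearly from a five-concentration, 48-hour dose response in 96-well plates. The concentration for 50% growth inhibition is given as GI50. At the TGI there is no net growth.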 Where only a bound is given, the exact number is not on record here.

Test systems include CCRF-CEM leukemia; HCT-15 colon; HL-60(TB) leukemia; KM12 colon; NCI-H23 lung; NCI-H522 lung; OVCAR-4 ovarian; SF-539 CNS; DMS 273 small cell lung; M19-MEL melanoma.
What all share (experiment): growth of human tumour cells (NCI), 48 h

`NC1=CC(=O)C(=O)c2cccnc21`: the GI50 in the test on CCRF-CEM leukemia was 3.16 µM; in the test on HCT-15 colon it was 5.37 µM; in the test on HL-60(TB) leukemia, 2.8 µM; in the test on KM12 colon it was 12 µM; in the test on NCI-H23 lung it was 2.06 µM; with NCI-H522 lung it was 7.32 µM. For the same molecule, the GI50 with OVCAR-4 ovarian was 2.59 µM; in the test on SF-539 CNS, 7.59 µM. Further, the TGI in the test with CCRF-CEM leukemia is 10.5 µM; with HCT-15 colon it was 23.4 µM; in the test with HL-60(TB) leukemia it was 9.08 µM; in the test on KM12 colon, 25.8 µM; in the test with NCI-H23 lung, 7.84 µM; in the test with NCI-H522 lung it was 22.6 µM. In addition, the TGI in the test with OVCAR-4 ovarian is 8.15 µM; with SF-539 CNS it was 20.3 µM.
With `O=C1Cc2ccccc2N1/N=C\c1ccc(O)cc1`, the TGI in the test on CCRF-CEM leukemia, with DMS 273 small cell lung, in the test on HCT-15 colon, with KM12 colon, in the test with M19-MEL melanoma and in the test with NCI-H23 lung was > 100 µM each time. Further, the TGI with OVCAR-4 ovarian and in the test with SF-539 CNS was > 100 µM throughout.
As to `COc1cc(/C=C/C(=O)c2c(C)n([O-])c3cc(C)c(C)cc3[n+]2=O)cc(OC)c1OC`, the GI50 in the test with CCRF-CEM leukemia is 5.68 µM; with HCT-15 colon it was 10.3 µM; in the test on HL-60(TB) leukemia it was 12.1 µM; in the test on KM12 colon, 13.1 µM; with NCI-H23 lung, 16.2 µM; with NCI-H522 lung it was 10.9 µM. Also, the GI50 with OVCAR-4 ovarian is 16.5 µM; in the test with SF-539 CNS it was 14.9 µM. Moreover, the TGI was > 100 µM in the test on CCRF-CEM leukemia; 25.6 µM in the test with HCT-15 colon; 61.7 µM in the test with HL-60(TB) leukemia; 32.6 µM in the test on KM12 colon; 41.9 µM in the test with NCI-H23 lung; 28.9 µM in the test with NCI-H522 lung. In addition, the TGI in the test with OVCAR-4 ovarian amounted to 48 µM; in the test on SF-539 CNS, 31.6 µM.
Turning to `COC(=O)Nc1nc2c(OC)c(OC)c(OC)cc2[nH]1`, the GI50 in the test with CCRF-CEM leukemia is 25.4 µM; in the test with HCT-15 colon, 5.71 µM; with HL-60(TB) leukemia it was 6.33 µM; in the test with KM12 colon, 5.48 µM; in the test on NCI-H23 lung, 39.1 µM; in the test on NCI-H522 lung, 13.3 µM. Besides, the GI50 with OVCAR-4 ovarian is 64.2 µM; in the test on SF-539 CNS, 18.6 µM. Also, the TGI in the test with CCRF-CEM leukemia was > 100 µM; in the test on HCT-15 colon, > 100 µM; in the test with HL-60(TB) leukemia, > 89.5 µM; in the test with KM12 colon, > 100 µM; in the test with NCI-H23 lung, > 100 µM; in the test on NCI-H522 lung, 58.1 µM. For the same molecule, the results for the TGI in the test on OVCAR-4 ovarian and in the test on SF-539 CNS were > 100 µM and 73.3 µM, respectively.
On to `CCOC(=O)Nc1nc2c(F)c(F)c(F)cc2s1`, for which the GI50 was > 100 µM in the test on CCRF-CEM leukemia; > 100 µM in the test on HCT-15 colon; > 100 µM in the test with HL-60(TB) leukemia; > 100 µM with KM12 colon; 89 µM in the test on NCI-H23 lung; 36.9 µM with NCI-H522 lung. Besides, the GI50 with OVCAR-4 ovarian was 37.5 µM; in the test on SF-539 CNS, 28.7 µM. In addition, the TGI in the test with CCRF-CEM leukemia, in the test with HCT-15 colon, in the test on HL-60(TB) leukemia, with KM12 colon, with NCI-H23 lung and with NCI-H522 lung was > 100 µM in each case. The TGI in the test on OVCAR-4 ovarian was > 100 µM; in the test on SF-539 CNS it was 98.2 µM.
As to `COc1cc(C/C=C/c2ccccc2)c(OC)cc1O`, the TGI was 52.3 µM in the test with CCRF-CEM leukemia; 37.2 µM in the test on HCT-15 colon; 59.9 µM in the test on HL-60(TB) leukemia; 30.7 µM with KM12 colon; 42.8 µM with NCI-H23 lung; 40.9 µM in the test on NCI-H522 lung. Moreover, the TGI came out at 51.3 µM in the test with OVCAR-4 ovarian and 37.6 µM with SF-539 CNS.
With `CC1=C[C@H]2c3c(c(O)c(O)c4oc5cc(O)cc(O)c5c(=O)c34)[C@H](c3cc(O)c(O)c4oc5cc(O)cc(O)c5c(=O)c34)[C@H]2C(C)(C)C1`, the GI50 with CCRF-CEM leukemia is 0.641 µM; in the test on HCT-15 colon, 2.75 µM and 1.62 µM; in the test with HL-60(TB) leukemia, 2.04 µM and 2.1 µM; in the test on KM12 colon it was 1.04 µM and 1.51 µM; in the test on NCI-H23 lung, 1.04 µM and 1.21 µM; with NCI-H522 lung, 1.3 µM and 1.34 µM. Also, the GI50 with OVCAR-4 ovarian was 3.92 µM and 2.9 µM; in the test on SF-539 CNS it was 1.16 µM and 1.69 µM. The TGI is 4.1 µM in the test on CCRF-CEM leukemia; 16.4 µM and 14 µM in the test on HCT-15 colon; 5.72 µM and 10.6 µM in the test on HL-60(TB) leukemia; 3.02 µM and 3.57 µM in the test on KM12 colon; 2.95 µM and 3.39 µM in the test on NCI-H23 lung; 3.04 µM and 4.56 µM in the test on NCI-H522 lung. Further, the TGI was 23.2 µM and 16.6 µM in the test on OVCAR-4 ovarian; 3.89 µM and 4.79 µM in the test with SF-539 CNS.
`Cc1cc(C)cc(Nc2nccc(-c3c(-c4ccc(F)cc4)ncn3C3CCNCC3)n2)c1`: the GI50 is 1.92 µM in the test on CCRF-CEM leukemia; 1.15 µM in the test with HCT-15 colon; 1.6 µM in the test with HL-60(TB) leukemia; 1.74 µM in the test on KM12 colon; 1.88 µM with NCI-H23 lung; 1.5 µM with NCI-H522 lung. Besides, the GI50 with OVCAR-4 ovarian is 1.49 µM; in the test with SF-539 CNS, 1.75 µM. The TGI with CCRF-CEM leukemia was 5.97 µM; in the test on HCT-15 colon it was 2.85 µM; in the test on HL-60(TB) leukemia, 3.68 µM; in the test on KM12 colon, 3.57 µM; with NCI-H23 lung, 4.21 µM; in the test with NCI-H522 lung, 3.45 µM. The TGI in the test on OVCAR-4 ovarian was 3.46 µM; with SF-539 CNS, 3.25 µM.
As for `O=C1c2c(c3c4ccccc4n4c3c3c2c2ccccc2n3C/C=C\C4)C(=O)N1Cc1ccccc1`, the TGI in the test on CCRF-CEM leukemia, in the test on HCT-15 colon, with HL-60(TB) leukemia, in the test on KM12 colon, in the test with M19-MEL melanoma and with NCI-H23 lung was > 100 µM in each case. Further, the TGI with NCI-H522 lung and in the test on SF-539 CNS was > 100 µM each time.
For `Cc1sc2nc(-c3ccccn3)c(/C=N/N=C(N)N)n2c1C`, the GI50 with CCRF-CEM leukemia was 6.02 µM; in the test on HCT-15 colon, 4.98 µM; in the test with HL-60(TB) leukemia, 4.48 µM; with KM12 colon, 7.85 µM; in the test with NCI-H23 lung, 6.37 µM; in the test on NCI-H522 lung, 5.18 µM. Besides, the values for the GI50 in the test on OVCAR-4 ovarian and in the test with SF-539 CNS were 5.15 µM and 28.6 µM, respectively. For the same molecule, the TGI was 19 µM in the test with CCRF-CEM leukemia; 13.5 µM with HCT-15 colon; > 100 µM in the test on HL-60(TB) leukemia; 15.6 µM in the test with KM12 colon; 15.3 µM in the test on NCI-H23 lung; 13.3 µM in the test on NCI-H522 lung. Besides, the TGI with OVCAR-4 ovarian was 13.3 µM; in the test on SF-539 CNS, 50.8 µM.
